# Laboratory results reported in US8859512B2, “Anti-viral pyrimidine nucleoside derivatives” (University College Cardiff Consultants Limited, priority 2006, dated 2014).
# Values joined by “and” are separate entries in the source; they are usually repeats but may differ in a detail not shown here. Equal entries are not always repeated. “Also recorded” adds a separate entry of the source.
# What was measured:
# [1] = test system: thymidine-kinase deficient Oka VZV strain in HEL cells; assay: Viral plaque formation reduction in HEL cells inoculated with VZV Oka strain; type: cell-based, Varicella Zoster virus; conditions: for antiviral activity (in words): in vitro
# [2] = Pilot oral pharmacokinetic study in female mice, plasma Compound 1 by HPLC with fluorescence detection; type: in vivo; conditions: single oral gavage 31.25 mg/kg vs Compound 1 25 mg/kg
Compound,"EC50 ([1]; Human alphaherpesvirus 3, HEL, read-out: EC50 in VZV OKA)",antiviral activity (in words) [1],plasma concentrations of Compound 1 compared to mice receiving Compound 1 (in words) [2]
CCCCCc1ccc(-c2cc3cn(C4CC(O)C(COC(=O)C(N)C(C)C)O4)c(=O)nc3o2)cc1 (stereo not shown) [Compound 5],16 nM and 0.008 µg/mL,active; also recorded: comparable in vitro antiviral activity to Compound 1,much higher
CCCCCc1ccc(-c2cc3cn(C4CC(O)C(COC(=O)C(N)C(C)C)O4)c(=O)nc3o2)cc1.Cl (stereo not shown) [Compound 6],,active,
